Earlier results in patent publication US20030004236A1, “Magnetic resonance imaging agents for detection and delivery of therapeutic agents and detection of physiological substances” (priority 2001, published 2003).

Conditions: thermodynamic stability of the Gd(III) chelate; background section

Row | Structure (SMILES) | stability constant (K), also known as formation constant, logK
1 | O=C([O-])CN(CCN(CC(=O)[O-])CC(=O)[O-])CCN(CC(=O)[O-])CC(=O)[O-].[Gd+3] [Gd(DTPA)^2−] | 22.4
2 | O=C([O-])CN1CCN(CC(=O)[O-])CCN(CC(=O)O)CCN(CC(=O)[O-])CC1.[Gd+3] [Gd-DOTA] | 28.5
